Measurements reported in article PMC3297008, “Novel Marine Phenazines as Potential Cancer Chemopreventive and Anti-Inflammatory Agents” (Marine Drugs, 2012).

Columns and labels:
ovine COX-1 = molecular target: T1, ovine COX-1 (Ovis aries, UniProt P05979); test: COX-1 inhibition assay (LC-MS/MS of PGE2); type: biochemical
T1 sequence (P05979 25-600): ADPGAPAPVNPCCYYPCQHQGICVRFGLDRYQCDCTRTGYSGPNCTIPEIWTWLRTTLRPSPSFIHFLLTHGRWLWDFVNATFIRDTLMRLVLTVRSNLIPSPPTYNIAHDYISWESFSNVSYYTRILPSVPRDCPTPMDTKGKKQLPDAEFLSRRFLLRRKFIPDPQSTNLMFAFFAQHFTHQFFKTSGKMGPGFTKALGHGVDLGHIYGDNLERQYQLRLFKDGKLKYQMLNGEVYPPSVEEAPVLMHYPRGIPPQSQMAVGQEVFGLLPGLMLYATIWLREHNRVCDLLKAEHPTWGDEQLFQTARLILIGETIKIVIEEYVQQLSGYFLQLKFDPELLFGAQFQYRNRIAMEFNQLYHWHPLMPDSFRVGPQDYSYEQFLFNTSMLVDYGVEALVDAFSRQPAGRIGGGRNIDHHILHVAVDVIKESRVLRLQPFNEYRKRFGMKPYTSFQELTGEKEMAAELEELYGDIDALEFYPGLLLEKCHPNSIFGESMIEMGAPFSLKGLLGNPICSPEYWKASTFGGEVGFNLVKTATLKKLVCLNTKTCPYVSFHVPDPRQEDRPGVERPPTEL
Method: (§1) Each COX reaction was initiated by adding 20 µL of arachidonic acid in Tris-HCl (pH 8.0) buffer to give a final concentration of 5 µM. The reaction was terminated after 2 min by adding 20 µL of 2.0 M HCl. The surrogate standard PGE2-d4 was added to correct for errors or degradation during sample handling and for variation in injection volume or instrument response during LC-MS/MS. After 30 min, PGE2 and its surrogate standard were extracted from each incubation mixture using 800 µL of hexane/ethyl acetate (50:50, v/v). The organic phase was removed, evaporated to dryness, and reconstituted in 100 µL methanol/water (50:50, v/v) for analysis using LC-MS/MS with an Applied Biosystems AP4000 triple quadrupole mass spectrometer as described previously. The concentration of PGE2 in each sample was measured using LC-MS/MS, and the percent of COX inhibition by each test solution was determined by comparing the amount of PGE2 produced in the experiment with that produced in the negative control incubation. For IC50 value determination, 12 different concentrations of each inhibitor were assayed three times. The IC50 value of each inhibitor toward COX-1 or COX-2 was determined by plotting and analyzing the inhibition curve data using Graph Pad Prism 5 software. The selectivity of each inhibitor was calculated as the ratio of the IC50 values (COX-1/COX-2).

human COX-2 = molecular target: T2, human COX-2 (Homo sapiens, UniProt P35354); test: COX-2 inhibition assay (LC-MS/MS of PGE2); type: biochemical; settings: for IC50: human COX-2; for Selectivity COX-1/COX-2: ratio of the IC50 values (COX-1/COX-2)
T2 sequence (P35354 18-604): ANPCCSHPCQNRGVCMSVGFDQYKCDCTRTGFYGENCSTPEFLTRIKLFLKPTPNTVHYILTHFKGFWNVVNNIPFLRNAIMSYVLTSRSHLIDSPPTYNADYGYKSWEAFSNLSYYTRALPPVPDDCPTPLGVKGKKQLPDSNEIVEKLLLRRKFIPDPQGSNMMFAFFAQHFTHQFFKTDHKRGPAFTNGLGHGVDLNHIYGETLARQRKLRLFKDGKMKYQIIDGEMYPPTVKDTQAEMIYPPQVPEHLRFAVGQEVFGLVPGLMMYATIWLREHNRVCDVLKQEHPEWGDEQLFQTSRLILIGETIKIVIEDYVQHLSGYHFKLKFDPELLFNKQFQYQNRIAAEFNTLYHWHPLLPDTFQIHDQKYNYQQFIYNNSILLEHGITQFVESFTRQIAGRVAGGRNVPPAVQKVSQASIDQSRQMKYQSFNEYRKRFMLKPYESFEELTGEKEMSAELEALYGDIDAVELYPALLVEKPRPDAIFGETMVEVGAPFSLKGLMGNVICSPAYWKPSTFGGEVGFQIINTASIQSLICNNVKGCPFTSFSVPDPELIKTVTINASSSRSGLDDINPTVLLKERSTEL
Method: as §1

HL-60 cells = test: NIM-DAPI cell cycle analysis / apoptosis of HL-60 cells; type: cell-based; settings: 24 h incubation, various concentrations
Method: Figure 3 NIM-DAPI cell cycle analysis of HL-60 cells. HL-60 cells (2 × 10^5 cells/well) were treated with different concentrations of the indicated compounds for 24 h. The media were discarded, and 4',6-diamidino-2-phenylindole solution (NIM-DAPI; Beckman Coulter) was added just before the measurement using a Cell Lab Quanta™ SC (Beckman Coulter) flow cytometer. NIM-DAPI-stained cells were analyzed after excitation. […] Results are representative of two experiments in triplicate.
HL-60 cells (2 × 10^5 cells/well) were treated with samples for 24 h. The media were discarded and nuclear isolation medium (4',6-diamidino-2-phenylindole, NIM-DAPI; Beckman Coulter) was added just before the measurement using a Cell Lab Quanta™ SC (Beckman Coulter) flow cytometer. NIM-DAPI-stained cells were analyzed after excitation.
HL-60 cells at a concentration of 2 × 10^6 cells/mL were incubated with testing phenazines at different concentrations for 24 h. The cells were fixed with 1% paraformaldehyde in PBS and treated with ethanol to permiabilize the cells. Positive and negative control cells were provided already fixed. The DNA labeling reaction was carried out at 22–24 °C overnight. This assay was run on a Cell Lab Quanta™ SC, Beckman Coulter flow cytometer equipped with a 488 nm Argon laser as the light source. Propidium Iodide (total cellular DNA) and Fluorescein (apoptotic cells) were used. Propidium Iodide (PI) fluoresces at about 623 nm and Fluorescein at 520 nm when excited at 488 nm. Following the manufacturer’s instructions, an APO-BRDU™ Kit (Phoenix Flow Systems, Inc.) with a two color TUNEL (Terminal deoxynucleotide transferase dUTP Nick End Labeling) capability for labeling DNA breaks and total cellular DNA to detect apoptotic cells was used.

| Compound | IC50 (ovine COX-1) | IC50 (human COX-2) | Selectivity COX-1/COX-2 (human COX-2) | accumulation of HL-60 cells in subG1 phase (apoptosis) (HL-60 cells) | enhancement of inhibition of the catalytic activity of COX-2 (human COX-2; phenazine 1 compared with lavanducyanin) | Selectivity COX-1/COX-2 (human COX-2; listed as phenazine 1) |
| --- | --- | --- | --- | --- | --- | --- |
| CC1=C(Cn2c3cccc(=O)c-3nc3ccccc32)CCC(C)(C)C1 [Lavanducyanin 3, lavanducyanin] | 30 ± 1.08 µM | 34 ± 1.1 µM | 0.88 | accumulated in the subG1 phase of the cell cycle |  |  |
| CC(C)=CCn1c2ccc(Br)c(=O)c-2nc2ccccc21 [Phenazine 2] | 5.6 ± 0.61 µM | 7.2 ± 0.13 µM | 0.78 | accumulated in the subG1 phase of the cell cycle |  |  |
| CC1=C(Cn2c3ccc(Br)c(=O)c-3nc3ccccc32)CCC(C)(C)C1 [Phenazine 1] | 11 ± 0.53 µM | 4 ± 0.41 µM | 2.75 | accumulated in the subG1 phase of the cell cycle | ~10 fold | approximately 3 |
